“Also recorded” adds a separate entry of the source. Read-outs that look alike come from different tables or passages of the source.
Key:
[1] = test system: cultured hippocampal neurons; experiment: Synchronous intracellular Ca2+ oscillations (FLIPR); type: cell-based, mouse; details: for effect on picrotoxin (PTX) induced Ca2+ oscillations: added 10 min before PTX
Description: Animals were treated humanely and with regard for alleviation of suffering according to protocols approved by the Institutional Animal Care and Use Committee of the University of California, Davis. Hippocampal neuron cultures were dissociated from hippocampi dissected from C57Bl/6J mouse pups at postnatal day 0-1 and maintained in Neurobasal complete medium (Neurobasal medium supplemented with NS21, 0.5 mM L-glutamine, HEPES) with 5% fetal bovine serum. For Ca^2+ imaging studies using FLIPR, dissociated hippocampal cells were plated onto poly-L-lysine coated clear-bottom, black wall, 96-well imaging plate (BD, Franklin Lakes, N.J., USA) at a density of 0.8×10^5/well. The medium was changed twice a week by replacing half the volume of culture medium in the well with serum-free Neurobasal complete medium. The neurons were maintained at 37° C. with 5% CO2 and 95% humidity.
Hippocampal neurons 14-17 DIV were used for simultaneous measurements of intracellular Ca^2+ transients in all wells of a 96-well plate as described previously (Cao et al., 2012). After aspiration, the cells were incubated with 4 μM Fluo-4 in Locke's buffer containing 0.5 mg/ml bovine serum albumin for 1 h at 37° C. The plates were then transferred to the FLIPR (Molecular Devices, Sunnyvale, Calif., USA) cell plate stage. After 4 min of baseline recordings, Ca^2+ signals were then recorded for 10 min in the presence or absence of SKA-19 followed by addition of the Ca^2+ enhancing agents 4-AP or PTX, and the intracellular Ca^2+ concentration ([Ca^2+]i) was monitored for an additional 30 min. Ca^2+-enhancing agents triggered an immediate rise in [Ca^2+]i that was quantified by determining the area under the curve of the Fluo-4 arbitraiy fluorescence units for a duration of 5 min following agent addition.
Hippocampal neurons between 13-17 days in vitro (DIV) were used to investigate how Ca^2+ enhancing agent alters synchronous Ca^2+ oscillations that normally occur in healthy neurons at this developmental stage. This method permits simultaneous measurements of intracellular Ca^2+ transients in all wells of a 96-well plate as described previously (Cao et al., 2012). Baseline recordings were acquired in Locke's buffer (8.6 mM HEPES, 5.6 mM KCl, 154 mM NaCl, 5.6 mM glucose, 1.0 mM MgCl2, 2.3 mM CaCl2, and 0.0001 mM glycine, pH 7.4) for 10 min in presence or absence of SKA-19 followed by addition of the Ca^2+ enhancing agents 4-aminopyridine (4-AP) or picrotoxin using a programmable 96-channel pipetting robotic system, and the intracellular Ca^2+ concentration ([Ca^2+]i) was monitored for an additional 30 min. Unless otherwise indicated, pharmacological interventions were introduced 10 min prior to Ca^2+ enhancing agent. Ca enhancing agent triggered an immediate rise in [Ca^2+]i that was quantified by determining the area under the curve (AUC) of the Fluo-4 arbitrary fluorescence units for a duration of 5 min following Ca^2+ enhancing agent addition. Ca^2+ enhancing agent also altered the frequency and amplitude of neuronal synchronous Ca^2+ oscillations, which were analyzed during the 10 min period after addition of Ca^2+ enhancing agent […].

formalin-induced pain = experiment: Formalin pain assay; type: in vivo, mice; details: 5 mg/kg
Description: SKA-19 was administered at a dose of 5 mg/kg to CF-1 male mice. At the previously determined time of peak anticonvulsant effect 0.5% formalin was injected sub-dermally into the plantar surface of the right hind foot. For each animal the amount of time (s) spent licking the affected hind paw in a two minute period was recorded at 5 minute intervals and continued for 45 minutes through both the acute and inflammatory phase.

MES-induced seizures = experiment: Maximal electroshock (MES) seizure test, mice (ASP, methylcellulose suspension); type: in vivo
Description: SKA-19 was tested under the auspices of the National Institutes of Health's Anticonvulsant Screening Program (ASP). Experiments were performed in male albino CF (Carworth Farms) No. 1 mice or Sprague-Dawley rats according to the established protocols of the ASP (White et al., 2002). SKA-19 was suspended in 0.5% methylcellulose and administered in a volume that permits accuracy of dosage without excessively contributing to total body fluid (0.01 ml/g body weight for mice and 0.04 ml/10 g body weight for rats).
Animals received an electrical stimulus of 0.2 s duration (50 mA in mice and 150 mA in rat at 60 Hz) delivered via corneal electrodes primed with an electrolyte solution containing 0.5% tetracaine. Animals were restrained by hand and released immediately after stimulation to permit observation of the seizure throughout its entire course. In the initial screens to identify anticonvulsant activity mice were tested at 30 minutes and 4 hours following doses of 3, 10, 30, 100 and 300 mg/kg of SKA-19 and rats tested at time intervals between 0.25 and 4 hours following a standard oral dose of 30 mg/kg. In the subsequent, more quantitative tests at least four doses of SKA-19 (n=8 per dose) were tested at the previously determined time of peak effect (TPE). Abolition of hindlimb tonic extension indicates the test compound's ability to inhibit MES-induced seizure spread. Tonic extension is considered abolished if the hind limbs are not fully extended at 180° with the body.

mice = experiment: Acute toxicity, rotorod test in mice; type: in vivo
Description: (§1) Abnormal neurological status in mice following SKA-19 administration was evaluated with the rotorod test. When a normal mouse is placed on a rod 1 inch in diameter that rotates at a speed of 6 rpm, the mouse can maintain equilibrium for a long time. Inability of the mouse to stay on the rotating rod in three trials for 1 min is taken as an indication of motor impairment. […] Mice were placed on a horizontally oriented grid (consisting of parallel 1.5-mm diameter rods situated 1 cm apart), and the grid was inverted. Animals that fell from the grid within 10 s were scored as impaired.

[2] = Acute toxicity, rotorod test in mice; type: in vivo; details: mouse, in vivo, ip, mice, i.p., suspension, read-out: TD50, ability of mice to stay on the rotorod
Description: as §1

[3] = ASP anticonvulsant testing, suspension in 0.5% methylcellulose

## Nc1nc2ccc(SC(F)(F)F)cc2s1 [SKA-19, 6-((trifluoromethyl)thio)benzo[d]thiazol-2-amine]
[1]; SKA-19 1 μM or less
  effect on spontaneous Ca2+ oscillations: did not significantly inhibit; also recorded: no effect
[1]; SKA-19 3 μM or more
  effect on spontaneous Ca2+ oscillations: completely eliminated
[1]; added 10 min before 4-AP
  effect on 4-AP induced initial Ca2+ rise and oscillations: potently suppressed; also recorded: inhibited
[1]
  effect on picrotoxin (PTX) induced Ca2+ oscillations: potently suppressed
[1]; listed as SKA-10
  effect on picrotoxin (PTX) induced Ca2+ oscillations: inhibited
formalin-induced pain; 2 hours prior to formalin
  reduction of paw licking (area under curve), Phase II: 31.3%
  reduction of total paw licking (area under curve), Phase I: 54.5%
formalin-induced pain; 2 h prior to formalin
  time spent licking the affected hindpaw: significantly decreased
MES-induced seizures; [3]
  duration of activity: 4 h
  time of peak activity / maximal effect: 1 to 2 h
MES-induced seizures; Mus musculus, ip, mice, i.p., methylcellulose suspension, time of peak effect (SKA-19: 2 h), read-out: ED50, seizure protection in the MES test
  ED50: 4.8 mg/kg
MES-induced seizures; mice, i.p., 3 mg/kg
  protection in the MES model, initial screen: partial protection
MES-induced seizures; mice, i.p., 10, 30 and 100 mg/kg
  protection in the MES model, initial screen: fully protected
MES-induced seizures; mice, i.p., suspension
  protective index PI (TD50/ED50): 6.2
mice; 100 mg/kg
  neurological deficit, rotorod: inability to clasp the rotorod
mice; 100 mg/kg i.p.
  mice that died: two out of 8
mice; 300 mg/kg
  neurological deficit / lethality: sedation or death
mice; 0.5 and 4 hours after 3, 10 and 30 mg/kg
  ability of mice to stay on the rotorod: no impairment
[2]; CF No. 1 (Carworth Farms)
  TD50: 29.8 mg/kg
[2]; albino CF No. 1 (Carworth Farms)
  TD50 at 2 h: 29.8 mg/kg
[2]
  TD50: 29.7 mg/kg

Source: patent publication US9675591B2, “Methods for treating seizure disorders and pain” (THE REGENTS OF THE UNIVERSITY OF CALIFORNIA, priority 2013, dated 2017)
